Results reported in patent US20240270762A1, “PENICILLIN-BINDING PROTEIN INHIBITORS” (priority 2021, published 2024).
Values after ≈ are worked out from the molar mass of the structure shown.

Columns and labels:
[1] = molecular target: T1, PBP3 from Pseudomonas aeruginosa (PAO1) (Pseudomonas aeruginosa, UniProt G3XD46); assay: Bocillin-FL fluorescence polarization competition binding, P. aeruginosa PBP3; conditions: Binding affinity to P. aeruginosa PBP3; fluorescence polarization competition binding assay using Bocillin-FL; read-out: P. aeruginosa PBP3 Potency
T1 construct: made in house
T1 sequence (G3XD46 whole entry): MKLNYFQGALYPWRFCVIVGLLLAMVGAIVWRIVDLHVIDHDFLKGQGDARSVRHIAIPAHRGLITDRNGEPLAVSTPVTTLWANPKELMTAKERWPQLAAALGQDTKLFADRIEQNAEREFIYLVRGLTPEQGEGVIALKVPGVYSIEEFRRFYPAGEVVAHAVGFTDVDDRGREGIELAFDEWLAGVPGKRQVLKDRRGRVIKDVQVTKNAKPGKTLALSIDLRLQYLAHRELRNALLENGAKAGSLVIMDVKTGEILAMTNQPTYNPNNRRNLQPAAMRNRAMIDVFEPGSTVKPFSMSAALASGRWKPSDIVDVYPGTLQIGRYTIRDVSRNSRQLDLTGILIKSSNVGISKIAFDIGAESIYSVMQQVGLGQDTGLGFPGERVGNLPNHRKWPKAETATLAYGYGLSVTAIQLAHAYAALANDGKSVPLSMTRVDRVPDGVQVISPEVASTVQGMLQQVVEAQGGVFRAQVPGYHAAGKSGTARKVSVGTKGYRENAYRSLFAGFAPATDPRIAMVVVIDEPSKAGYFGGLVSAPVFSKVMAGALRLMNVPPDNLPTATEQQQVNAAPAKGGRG
Procedure, shortened: (§1)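 Purified PBP was preincubated with inhibitor (E. coli PBP3 1.5 μM, 30 min; P. aeruginosa PBP3 0.75 μM, A. baumannii PBP3 0.2 μM and PBP1a 1 μM, 15 min), then Bocillin-FL (0.1 μM; 0.05 μM for PBP1a) added and FP read up to 60 min. EC50 = 50% loss of bound probe.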

[2] = molecular target: T2, PBP3 from Acinetobacter baumannii (ATCC 19606) (Acinetobacter baumannii, UniProt A0ABX6CK25); assay: Bocillin-FL fluorescence polarization competition binding, A. baumannii PBP3; conditions: fluorescence polarization competition binding assay using Bocillin-FL; read-out: A. baumannii PBP3 Potency
T2 sequence (A0ABX6CK25 64-610): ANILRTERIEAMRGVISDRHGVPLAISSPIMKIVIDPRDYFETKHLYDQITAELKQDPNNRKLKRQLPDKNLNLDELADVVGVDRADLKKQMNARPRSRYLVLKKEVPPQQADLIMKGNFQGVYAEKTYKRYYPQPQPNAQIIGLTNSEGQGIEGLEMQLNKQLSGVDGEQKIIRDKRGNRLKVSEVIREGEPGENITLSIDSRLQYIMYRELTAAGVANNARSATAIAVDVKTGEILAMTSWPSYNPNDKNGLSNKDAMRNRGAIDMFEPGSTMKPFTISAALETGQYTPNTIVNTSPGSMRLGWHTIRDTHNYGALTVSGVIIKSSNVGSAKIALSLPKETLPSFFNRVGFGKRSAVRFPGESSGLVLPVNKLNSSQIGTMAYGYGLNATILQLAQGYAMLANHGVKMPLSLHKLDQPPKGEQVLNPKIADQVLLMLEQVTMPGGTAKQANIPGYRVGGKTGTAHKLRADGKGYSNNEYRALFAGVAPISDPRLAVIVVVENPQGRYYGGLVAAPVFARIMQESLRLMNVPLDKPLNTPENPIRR
Procedure, shortened: as §1

[3] = molecular target: A. baumannii PBP2 (Acinetobacter baumannii, UniProt D0C8Z9); assay: Bocillin-FL competition binding via gel filtration, A. baumannii PBP2
Sequence of A. baumannii PBP2 (D0C8Z9 whole entry): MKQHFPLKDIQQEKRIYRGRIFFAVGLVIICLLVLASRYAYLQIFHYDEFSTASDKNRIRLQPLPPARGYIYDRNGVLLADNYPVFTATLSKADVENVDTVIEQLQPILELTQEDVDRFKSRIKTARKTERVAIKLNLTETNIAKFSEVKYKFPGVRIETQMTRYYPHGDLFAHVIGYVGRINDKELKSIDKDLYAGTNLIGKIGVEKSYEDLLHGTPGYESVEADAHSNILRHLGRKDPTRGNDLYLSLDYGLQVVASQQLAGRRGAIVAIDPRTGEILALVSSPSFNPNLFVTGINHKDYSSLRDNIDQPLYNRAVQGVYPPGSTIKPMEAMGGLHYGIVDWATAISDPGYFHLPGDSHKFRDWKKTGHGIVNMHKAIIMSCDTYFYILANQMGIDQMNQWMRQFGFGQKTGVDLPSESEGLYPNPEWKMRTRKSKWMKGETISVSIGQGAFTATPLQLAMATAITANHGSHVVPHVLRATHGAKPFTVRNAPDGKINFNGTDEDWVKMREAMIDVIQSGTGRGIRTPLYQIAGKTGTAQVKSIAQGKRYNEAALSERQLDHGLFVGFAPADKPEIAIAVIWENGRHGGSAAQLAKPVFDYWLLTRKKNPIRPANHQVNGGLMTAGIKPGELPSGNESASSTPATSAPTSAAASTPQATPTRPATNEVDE
Procedure, shortened: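 Competitive equilibrium binding; reporter Bocillin-FL. PBP + inhibitor (titration) pre-incubated → Bocillin-FL, 15 min → gel filtration → fluorescence. EC50 from Hill fit of fraction bound vs [inhibitor].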

[4] = test system: A. baumannii ATCC 17978; assay: microbe, parasite or virus in culture; format: cell-based; conditions: Acinetobacter baumannii, ATCC17978, read-out: MIC, A. baumannii ATCC 17978
[5] = test system: P. aeruginosa (ΔmexAB-oprM); assay: Broth microdilution MIC in iron-depleted CAMHB (IDM); format: cell-based; conditions: Pseudomonas aeruginosa; iron-depleted CAMHB (IDM); […]; read-out: Minimum inhibitory concentration, P. aeruginosa ΔmexAB-oprM
[6] = test system: A. baumannii 1258916; assay: microbe, parasite or virus in culture; format: cell-based, Acinetobacter baumannii; conditions: Acinetobacter baumannii, 1258916, read-out: MIC, A. baumannii 1258916
[7] = test system: A. baumannii CDC-0036; assay: microbe, parasite or virus in culture; format: cell-based; conditions: Acinetobacter baumannii, CDC0036, read-out: MIC, A. baumannii CDC-0036
[8] = test system: P. aeruginosa CDC-0110; assay: microbe, parasite or virus in culture; format: cell-based; conditions: Pseudomonas aeruginosa, CDC0110, read-out: Minimum inhibitory concentration, P. aeruginosa CDC-0110

SMILES | IC50 [1] [µM] | IC50 [2] [µM] | EC50 [3] [µM] | MIC [4] [µg/mL] | MIC [5] [µg/mL] | MIC [6] [µg/mL] | MIC [7] [µg/mL] | MIC [8] [µg/mL]
O=C(NCCCN1CCN(C(=O)NC(C(=O)N[C@H]2Cc3ccc(F)c(C(=O)O)c3OB2O)c2cc(F)c(O)c(O)c2Cl)C(=O)C1=O)c1cc(O)ccc1Cl (stereo partly drawn) [Example 408, (3R)-3-(2-(2-chloro-5-fluoro-3,4-dihydroxyphenyl)-2-(4-(3-(2-chloro-5-hydroxybenzamido)propyl)-2,3-dioxopiperazine-1-carboxamido)acetamido)-7-fluoro-2-hydroxy-3,4-dihydro-2H-benzo[e][1,2]oxaborinine-8-carboxylic acid] | < 10 | < 10 | < 10 | < 1 | < 1 | 2 to 4 (≈ 2.52 to 5.04 µM) | 8 to 16 (≈ 10.1 to 20.1 µM) | < 1
O=C(NCCCN1CCN(C(=O)NC(C(=O)N[C@H]2Cc3ccc(F)c(C(=O)O)c3OB2O)c2cc(F)c(O)c(O)c2Cl)C(=O)C1=O)c1ccc(F)c(O)c1 (stereo partly drawn) [Example 409, (3R)-3-(2-(2-chloro-5-fluoro-3,4-dihydroxyphenyl)-2-(4-(3-(4-fluoro-3-hydroxybenzamido)propyl)-2,3-dioxopiperazine-1-carboxamido)acetamido)-7-fluoro-2-hydroxy-3,4-dihydro-2H-benzo[e][1,2]oxaborinine-8-carboxylic acid] | < 10 | < 10 | < 10 | < 1 | < 1 | 2 to 4 (≈ 2.57 to 5.14 µM) | 2 to 4 (≈ 2.57 to 5.14 µM) | < 1
O=C(NCCCN1CCN(C(=O)NC(C(=O)N[C@H]2Cc3ccc(F)c(C(=O)O)c3OB2O)c2cc(F)c(O)c(O)c2Cl)C(=O)C1=O)c1cc(O)cc(F)c1 (stereo partly drawn) [Example 410, (3R)-3-(2-(2-chloro-5-fluoro-3,4-dihydroxyphenyl)-2-(4-(3-(3-fluoro-5-hydroxybenzamido)propyl)-2,3-dioxopiperazine-1-carboxamido)acetamido)-7-fluoro-2-hydroxy-3,4-dihydro-2H-benzo[e][1,2]oxaborinine-8-carboxylic acid] | < 10 | < 10 | < 10 | < 1 | < 1 | 2 to 4 (≈ 2.57 to 5.14 µM) | 2 to 4 (≈ 2.57 to 5.14 µM) | < 1
O=C(NCCCN1CCN(C(=O)NC(C(=O)N[C@H]2Cc3ccc(F)c(C(=O)O)c3OB2O)c2cc(F)c(O)c(O)c2Cl)C(=O)C1=O)c1ccc(F)c(O)c1F (stereo partly drawn) [Example 411, (3R)-3-(2-(2-chloro-5-fluoro-3,4-dihydroxyphenyl)-2-(4-(3-(2,4-difluoro-3-hydroxybenzamido)propyl)-2,3-dioxopiperazine-1-carboxamido)acetamido)-7-fluoro-2-hydroxy-3,4-dihydro-2H-benzo[e][1,2]oxaborinine-8-carboxylic acid] | < 10 | < 10 | < 10 | < 1 | < 1 | 2 to 4 (≈ 2.51 to 5.03 µM) | 2 to 4 (≈ 2.51 to 5.03 µM) | < 1
O=C(NCCCN1CCN(C(=O)NC(C(=O)N[C@H]2Cc3ccc(F)c(C(=O)O)c3OB2O)c2cc(F)c(O)c(O)c2Cl)C(=O)C1=O)c1c(F)ccc(O)c1F (stereo partly drawn) [Example 413, (3R)-3-(2-(2-chloro-5-fluoro-3,4-dihydroxyphenyl)-2-(4-(3-(2,6-difluoro-3-hydroxybenzamido)propyl)-2,3-dioxopiperazine-1-carboxamido)acetamido)-7-fluoro-2-hydroxy-3,4-dihydro-2H-benzo[e][1,2]oxaborinine-8-carboxylic acid] | < 10 | < 10 | 10 to 50 | < 1 | < 1 | 2 to 4 (≈ 2.51 to 5.03 µM) | 2 to 4 (≈ 2.51 to 5.03 µM) | < 1
O=C(NCCCN1CCN(C(=O)NC(C(=O)N[C@H]2Cc3ccc(F)c(C(=O)O)c3OB2O)c2cc(F)c(O)c(O)c2Cl)C(=O)C1=O)c1c(F)ccc(O)c1Cl (stereo partly drawn) [Example 414, (3R)-3-(2-(2-chloro-5-fluoro-3,4-dihydroxyphenyl)-2-(4-(3-(2-chloro-6-fluoro-3-hydroxybenzamido)propyl)-2,3-dioxopiperazine-1-carboxamido)acetamido)-7-fluoro-2-hydroxy-3,4-dihydro-2H-benzo[e][1,2]oxaborinine-8-carboxylic acid] | < 10 | < 10 | < 10 | < 1 | < 1 | 2 to 4 (≈ 2.46 to 4.92 µM) | 2 to 4 (≈ 2.46 to 4.92 µM) | < 1
O=C(NCCCN1CCN(C(=O)NC(C(=O)N[C@H]2Cc3ccc(F)c(C(=O)O)c3OB2O)c2cc(F)c(O)c(O)c2Cl)C(=O)C1=O)c1cc(O)c(F)c(O)c1F (stereo partly drawn) [Example 415, (3R)-3-(2-(2-chloro-5-fluoro-3,4-dihydroxyphenyl)-2-(4-(3-(2,4-difluoro-3,5-dihydroxybenzamido)propyl)-2,3-dioxopiperazine-1-carboxamido)acetamido)-7-fluoro-2-hydroxy-3,4-dihydro-2H-benzo[e][1,2]oxaborinine-8-carboxylic acid] | < 10 | < 10 | 10 to 50 | < 1 | < 1 | 2 to 4 (≈ 2.46 to 4.93 µM) | 2 to 4 (≈ 2.46 to 4.93 µM) | < 1
O=C(NCCCN1CCN(C(=O)NC(C(=O)N[C@H]2Cc3ccc(F)c(C(=O)O)c3OB2O)c2cc(F)c(O)c(O)c2Cl)C(=O)C1=O)c1cc(O)c(F)c(O)c1 (stereo partly drawn) [Example 416, (3R)-3-(2-(2-chloro-5-fluoro-3,4-dihydroxyphenyl)-2-(4-(3-(4-fluoro-3,5-dihydroxybenzamido)propyl)-2,3-dioxopiperazine-1-carboxamido)acetamido)-7-fluoro-2-hydroxy-3,4-dihydro-2H-benzo[e][1,2]oxaborinine-8-carboxylic acid] | < 10 | < 10 | < 10 | < 1 | < 1 | < 1 | 2 to 4 (≈ 2.52 to 5.04 µM) | < 1
O=C(NCCCN1CCN(C(=O)NC(C(=O)N[C@H]2Cc3ccc(F)c(C(=O)O)c3OB2O)c2cc(F)c(O)c(O)c2Cl)C(=O)C1=O)c1ccc(O)c(F)c1Cl (stereo partly drawn) [Example 418, (3R)-3-(2-(4-(3-(2-chloro-3-fluoro-4-hydroxybenzamido)propyl)-2,3-dioxopiperazine-1-carboxamido)-2-(2-chloro-5-fluoro-3,4-dihydroxyphenyl)acetamido)-7-fluoro-2-hydroxy-3,4-dihydro-2H-benzo[e][1,2]oxaborinine-8-carboxylic acid] | < 10 | < 10 | < 10 | < 1 | < 1 | 2 to 4 (≈ 2.46 to 4.92 µM) | 2 to 4 (≈ 2.46 to 4.92 µM) | < 1
O=C(NCCCN1CCN(C(=O)NC(C(=O)N[C@H]2Cc3ccc(F)c(C(=O)O)c3OB2O)c2cc(F)c(O)c(O)c2Cl)C(=O)C1=O)c1ccc(O)c(Cl)c1F (stereo partly drawn) [Example 419, (3R)-3-(2-(4-(3-(3-chloro-2-fluoro-4-hydroxybenzamido)propyl)-2,3-dioxopiperazine-1-carboxamido)-2-(2-chloro-5-fluoro-3,4-dihydroxyphenyl)acetamido)-7-fluoro-2-hydroxy-3,4-dihydro-2H-benzo[e][1,2]oxaborinine-8-carboxylic acid] | < 10 | < 10 | < 10 | < 1 | < 1 | 2 to 4 (≈ 2.46 to 4.92 µM) | 2 to 4 (≈ 2.46 to 4.92 µM) | < 1
O=C(NCCCN1CCN(C(=O)NC(C(=O)N[C@H]2Cc3ccc(F)c(C(=O)O)c3OB2O)c2cc(F)c(O)c(O)c2Cl)C(=O)C1=O)c1c(F)cc(O)cc1Cl (stereo partly drawn) [Example 421, (3R)-3-(2-(2-chloro-5-fluoro-3,4-dihydroxyphenyl)-2-(4-(3-(2-chloro-6-fluoro-4-hydroxybenzamido)propyl)-2,3-dioxopiperazine-1-carboxamido)acetamido)-7-fluoro-2-hydroxy-3,4-dihydro-2H-benzo[e][1,2]oxaborinine-8-carboxylic acid] | < 10 | < 10 | < 10 | < 1 | < 1 | 2 to 4 (≈ 2.46 to 4.92 µM) | 2 to 4 (≈ 2.46 to 4.92 µM) | < 1
